{
  "source": "patent US8202885B2",
  "about": "“Bridged six-membered ring compounds” (Actelion Pharmaceuticals Ltd., priority 2007, dated 2012)",
  "data": [
    {"system": "human Cav3.1 Cav3.2 or Cav3.3 channel", "assay": "In vitro assay T channel (FLIPR calcium fluorescence)", "type": "cell-based", "details": "HEK293 cells expressing human Cav3.1, Cav3.2 or Cav3.3; 10 mM Ca2+-induced fluo-4 fluorescence; determined up to 10 μM; read-out: T channel antagonistic activity IC50", "method_in_brief": "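HEK293 cells stably expressing human Cav3.1, Cav3.2 or Cav3.3 loaded with fluo-4 AM (3 μM), preincubated 3 min with antagonist, then stimulated with 10 mM Ca2+ in TEA-chloride/HEPES buffer pH 7.2. FLIPR fluorescence read every 2 s for 8 min; IC50 from peak area versus vehicle, tested up to 10 μM.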", "units": {"IC50": "nM"}, "values": [
      {"smiles": "Cc1nc(CCCN(C)CC[C@]2(OC(=O)C(C)C)C[C@H]3CC[C@@H]2C=C3c2ccccc2)[nH]c1-c1ccccc1", "note": "(relative stereo) [Example 71A, rac-Isobutyric acid (1R*,2R*,4R*)-2-(2-{methyl-[3-(4-methyl-5-phenyl-1H-imidazol-2-yl)-propyl]-amino}-ethyl)-5-phenyl-bicyclo[2.2.2]oct-5-en-2-yl ester]", "IC50": 1450},
      {"smiles": "COC(C)(C)C(=O)NCCCN(C)CC[C@]1(O)C[C@H]2CC[C@@H]1C=C2c1ccccc1", "note": "(relative stereo) [Example 44, rac-N-(3-{[2-((1R*,2R*,4R*)-2-Hydroxy-5-phenyl-bicyclo[2.2.2]oct-5-en-2-yl)-ethyl]-methyl-amino}-propyl)-2-methoxy-2-methyl-propionamide]", "IC50": "> 10000"},
      {"smiles": "COc1cccc2[nH]c(CCCN(C)CCC3(OC(=O)C(C)C)CC4CCC3C=C4c3ccccc3)nc12", "note": "[Example 54A, Isobutyric acid (1R,2R,4R)-2-(2-{[3-(4-methoxy-1H-benzoimidazol-2-yl)-propyl]-methyl-amino}-ethyl)-5-phenyl-bicyclo[2.2.2]oct-5-en-2-yl ester or isobutyric acid (1S,2S,4S)-2-(2-{[3-(4-methoxy-1H-benzoimidazol-2-yl)-propyl]-methyl-amino}-ethyl)-5-phenyl-bicyclo[2.2.2]oct-5-en-2-yl ester]", "IC50": 1140},
      {"smiles": "COCC(C)(COC)C(=O)NCCCN(C)CC[C@]1(O)C[C@H]2CC[C@@H]1C=C2c1ccccc1", "note": "(relative stereo) [Example 43, rac-N-(3-{[2-((1R*,2R*,4R*)-2-Hydroxy-5-phenyl-bicyclo[2.2.2]oct-5-en-2-yl)-ethyl]-methyl-amino}-propyl)-3-methoxy-2-methoxymethyl-2-methyl-propionamide]", "IC50": "> 10000"},
      {"smiles": "CN(CCCc1cccnc1)CC[C@]1(O)C[C@H]2CC[C@@H]1C=C2c1ccccc1", "note": "(relative stereo) [Example 46, rac-(1R*,2R*,4R*)-2-{2-[Methyl-(3-pyridin-3-yl-propyl)-amino]-ethyl}-5-phenyl-bicyclo[2.2.2]oct-5-en-2-ol]", "IC50": "> 10000"},
      {"smiles": "CC(C)C(=O)OC1(CCN(C)CCCc2nc3ccccc3[nH]2)CC2CCC1C=C2c1ccccc1", "note": "[Example 11A, Isobutyric acid (1R,2R,4R)-2-(2-{[3-(1H-benzoimidazol-2-yl)-propyl]-methyl-amino}-ethyl)-5-phenyl-bicyclo[2.2.2]oct-5-en-2-yl ester or isobutyric acid (1S,2S,4S)-2-(2-{[3-(1H-benzoimidazol-2-yl)-propyl]-methyl-amino}-ethyl)-5-phenyl-bicyclo[2.2.2]oct-5-en-2-yl ester]", "IC50": 4650},
      {"smiles": "CC(C)C(=O)O[C@@]1(CCN(C)CCCc2ccccc2)C[C@H]2CC[C@@H]1C=C2c1ccccc1", "note": "(relative stereo) [Example 15A, rac-Isobutyric acid (1R*,2R*,4R*)-2-{2-[methyl-(3-phenyl-propyl)-amino]-ethyl}-5-phenyl-bicyclo[2.2.2]oct-5-en-2-yl ester]", "IC50": 8630},
      {"smiles": "CC(C)C(=O)O[C@@]1(CCN(C)CCCc2nc3ccccc3[nH]2)C[C@H]2CC[C@@H]1C=C2c1ncco1", "note": "(relative stereo) [Example 25A, rac-Isobutyric acid (1R*,2R*,4R*)-2-(2-{[3-(1H-benzoimidazol-2-yl)-propyl]-methyl-amino}-ethyl)-5-oxazol-2-yl-bicyclo[2.2.2]oct-5-en-2-yl ester]", "IC50": 1590},
      {"smiles": "CC(C)C(=O)O[C@@]1(CCN(C)Cc2nc3ccccc3[nH]2)C[C@H]2CC[C@@H]1C=C2c1ccccc1", "note": "(relative stereo) [Example 14A, rac-Isobutyric acid (1R*,2R*,4R*)-2-{2-[(1H-benzoimidazol-2-ylmethyl)-methyl-amino]-ethyl}-5-phenyl-bicyclo[2.2.2]oct-5-en-2-yl ester]", "IC50": 3180},
      {"smiles": "CCOc1cccc2nc(CCCN(C)CC[C@]3(O)C[C@H]4CC[C@@H]3C=C4c3ccccc3)[nH]c12", "note": "(relative stereo) [Example 31, rac-(1R*,2R*,4R*)-2-(2-{[3-(7-Ethoxy-1H-benzoimidazol-2-yl)-propyl]-methyl-amino}-ethyl)-5-phenyl-bicyclo[2.2.2]oct-5-en-2-ol]", "IC50": 2580},
      {"smiles": "COc1cc(C)c2[nH]c(CCCN(C)CC[C@]3(OC(=O)C(C)C)C[C@H]4CC[C@@H]3C=C4c3ccccc3)nc2c1OC", "note": "(relative stereo) [Example 64A, rac-Isobutyric acid (1R*,2R*,4R*)-2-(2-{[3-(4,5-dimethoxy-7-methyl-1H-benzoimidazol-2-yl)-propyl]-methyl-amino}-ethyl)-5-phenyl-bicyclo[2.2.2]oct-5-en-2-yl ester]", "IC50": 914},
      {"smiles": "COc1cccc(C2=C[C@H]3CC[C@@H]2C[C@@]3(O)CCN(C)CCCc2nc3ccccc3[nH]2)c1", "note": "(relative stereo) [Example 2, rac-(1R*,2R*,4R*)-2-(2-{[3-(1H-Benzoimidazol-2-yl)-propyl]-methyl-amino}-ethyl)-5-(3-methoxy-phenyl)-bicyclo[2.2.2]oct-5-en-2-ol]", "IC50": 5980},
      {"smiles": "COCC(C)(COC)C(=O)NCCCN(C)CC[C@]1(OC(=O)C(C)C)C[C@H]2CC[C@@H]1C=C2c1ccccc1", "note": "(relative stereo) [Example 43A, rac-Isobutyric acid (1R*,2R*,4R*)-2-(2-{[3-(3-methoxy-2-methoxymethyl-2-methyl-propionylamino)-propyl]-methyl-amino}-ethyl)-5-phenyl-bicyclo[2.2.2]oct-5-en-2-yl ester]", "IC50": 2710},
      {"smiles": "CC(C)C(=O)O[C@@]1(CCN(C)CCCc2nc(-c3ccccc3)c(-c3ccccc3)[nH]2)C[C@H]2CC[C@@H]1C=C2c1ccccc1", "note": "(relative stereo) [Example 47A, rac-Isobutyric acid (1R*,2R*,4R*)-2-(2-{[3-(4,5-diphenyl-1H-imidazol-2-yl)-propyl]-methyl-amino}-ethyl)-5-phenyl-bicyclo[2.2.2]oct-5-en-2-yl ester]", "IC50": 8030},
      {"smiles": "COc1cccc2[nH]c(CCCN(C)CC[C@]3(O)C[C@H]4CCC[C@@H]3C=C4c3ccccc3)nc12", "note": "(relative stereo) [Example 36, rac-(1R*,5R*,6R*)-6-(2-{[3-(4-Methoxy-1H-benzoimidazol-2-yl)-propyl]-methyl-amino}-ethyl)-8-phenyl-bicyclo[3.2.2]non-8-en-6-ol]", "IC50": 1330},
      {"smiles": "CCOc1cccc2nc(CCCN(C)CC[C@]3(OC(=O)C(C)C)C[C@H]4CC[C@@H]3C=C4c3ccccc3)[nH]c12", "note": "(relative stereo) [Example 31A, rac-Isobutyric acid (1R*,2R*,4R*)-2-(2-{[3-(7-ethoxy-1H-benzoimidazol-2-yl)-propyl]-methyl-amino}-ethyl)-5-phenyl-bicyclo[2.2.2]oct-5-en-2-yl ester]", "IC50": 2600},
      {"smiles": "COC(=O)c1cccc2[nH]c(CCCN(C)CC[C@]3(O)C[C@H]4CC[C@@H]3C=C4c3ccccc3)nc12", "note": "(relative stereo) [Example 19, rac-2-(3-{[2-((1R*,2R*,4R*)-2-Hydroxy-5-phenyl-bicyclo[2.2.2]oct-5-en-2-yl)-ethyl]-methyl-amino}-propyl)-1H-benzoimidazole-4-carboxylic acid methyl ester]", "IC50": 1570},
      {"smiles": "Cc1cccc(C)c1C1=C[C@H]2CC[C@@H]1C[C@]2(CCN(C)CCCc1nc2ccccc2[nH]1)OC(=O)C(C)C", "note": "(relative stereo) [Example 3A, rac-Isobutyric acid (1R*,2R*,4R*)-2-(2-{[3-(1H-benzoimidazol-2-yl)-propyl]-methyl-amino}-ethyl)-5-(2,6-dimethyl-phenyl)-bicyclo[2.2.2]oct-5-en-2-yl ester]", "IC50": 4600},
      {"smiles": "CC(C)C(=O)O[C@@]1(CCN(C)CCCc2nc3ccccc3[nH]2)C[C@H]2CC[C@@H]1C[C@@]21OCc2ccccc21", "note": "(relative stereo) [Example 79A, rac-Isobutyric acid (1R*,2R*,4R*,5R*)-5-(2-{[3-(1H-benzoimidazol-2-yl)-propyl]-methyl-amino}-ethyl)-3′H-spiro(bicyclo[2.2.2]octane-2,1′-isobenzofuran)-5-yl ester]", "IC50": 9470},
      {"smiles": "CCCC1=C(C)[C@H]2CC[C@@H]1C[C@@]2(O)CCN(C)CCCc1nc2ccccc2[nH]1", "note": "(relative stereo) [Example 16, rac-(1R*,2R*,4R*)-2-(2-{[3-(1H-Benzoimidazol-2-yl)-propyl]-methyl-amino}-ethyl)-6-methyl-5-propyl-bicyclo[2.2.2]oct-5-en-2-ol]", "IC50": 5690},
      {"smiles": "CN(CCCc1nc2ccccc2[nH]1)CC[C@]1(O)C[C@H]2CC[C@@H]1C=C2c1ccccc1", "note": "(relative stereo) [Example 1, rac-(1R*,2R*,4R*)-2-(2-{[3-(1H-Benzoimidazol-2-yl)-propyl]-methyl-amino}-ethyl)-5-phenyl-bicyclo[2.2.2]oct-5-en-2-ol]", "IC50": 2300},
      {"smiles": "COc1ccc(C)c2nc(CCCN(C)CC[C@]3(OC(=O)C(C)C)C[C@H]4CCC[C@@H]3C=C4c3ccccc3)[nH]c12", "note": "(relative stereo) [Example 66A, rac-Isobutyric acid (1R*,5R*,6R*)-6-(2-{[3-(7-methoxy-4-methyl-1H-benzoimidazol-2-yl)-propyl]-methyl-amino}-ethyl)-8-phenyl-bicyclo[3.2.2]non-8-en-6-yl ester]", "IC50": 680},
      {"smiles": "COc1cccc2[nH]c(CCCN(C)CCC3(OC(=O)C(C)C)CC4CCC3C=C4c3ccccc3)nc12", "note": "[Example 55A, Isobutyric acid (1R,2R,4R)-2-(2-{[3-(4-methoxy-1H-benzoimidazol-2-yl)-propyl]-methyl-amino}-ethyl)-5-phenyl-bicyclo[2.2.2]oct-5-en-2-yl ester or isobutyric acid (1S,2S,4S)-2-(2-{[3-(4-methoxy-1H-benzoimidazol-2-yl)-propyl]-methyl-amino}-ethyl)-5-phenyl-bicyclo[2.2.2]oct-5-en-2-yl ester]", "IC50": 1070},
      {"smiles": "CCOc1ccc(CCN(CC)CC[C@]2(OC(=O)C(C)C)C[C@H]3CC[C@@H]2C=C3c2ccccc2)cc1OCC", "note": "(relative stereo) [Example 38A, rac-Isobutyric acid (1R*,2R*,4R*)-2-(2-{[2-(3,4-diethoxy-phenyl)-ethyl]-ethyl-amino}-ethyl)-5-phenyl-bicyclo[2.2.2]oct-5-en-2-yl ester]", "IC50": 2510}
    ]}
  ]
}
